# According to patent US9429582B2, “Tyrosine-phosphorylated WBP2, a novel cancer target and biomarker” (National University of Singapore, priority 2010, dated 2016):
# Entries after “also recorded” stand apart in the source; their conditions may differ.
# Columns and labels:
# Assay type in all cases: cell-based, human
# [1] = test system: vector-expressing MCF7; assay: Cell proliferation (MTS / cell numbers) of vector-expressing MCF7
# Description: A: Whole cell lysates from vector, WBP2-WT, WBP2-Y192-231E mutant and WBP2-Y192-231F mutant expressing MCF7 or Y192-231E mutant expressing MCF7 with WBP2 knockdown were used for IB analysis with antibodies indicated. B: Vector, WBP2-WT, WBP2-Y192-231E mutant or WBP2-Y192-231F mutant-expressing MCF7 were co-transfected with TOPFlash (top panel) or ERE-Luciferase (bottom panel) reporter construct. For cells co-transfected ERE-luciferase, they were either left alone or stimulated with 50 ng/ml Wnt3a ligand for 16 hrs. TCF/ERα luciferase activities in various conditions were then assayed. **P<0.01, ***P<0.001, Student's t-test (2-tailed). C: Vector or WBP2-Y192-231E mutant-expressing MCF7 were treated with indicated concentrations of Tamoxifen(Tam) and/or FH535. Cell numbers were measured. D: Whole cell lysates from WBP2-Y192-231E mutant-expressing MCF7 treated with 2 μM Tam and/or 15 μM FH5353 were harvested at day 2-4 post-treatment and used for IB analysis with antibodies indicated.
# Whole cell lysates from vector, WBP2-WT, WBP2-Y192-231E mutant and WBP2-Y192-231F mutant expressing MCF7 (A) or Y192-231E mutant expressing MCF7 with WBP2 knockdown (B) were used for IB analysis with antibodies indicated. Their expression levels were quantified in three independent experiments and the averages were presented relative to actin. Representative blots (order in lanes from left to right: vector, WBP2, Y192-231E, Y192F) were presented as insets to the bar graphs. **P<0.01, ***P<0.001, Student's t-test (2-tailed) relative to vector. […] TCF(C)/ER[…](D) luciferase activities in various conditions were then assayed and analyzed in relative to untreated vector control. **P<0.01, ***P<0.001, Student's t-test (2-tailed). […] Cell numbers were measured daily and compared in relative to vehicle treated vector-expressing cells on Day 0. […] Cell numbers were measured and compared in relative to vehicle-treated cells. Their […] were analyzed statistically with SPSS 13.0. […] Cell numbers were measured on day 2 and day 4 and compared in relative to vehicle-treated control at each day (Top Panel). […]
# [2] = test system: TCF/β-catenin signaling; assay: TCF reporter activity / β-catenin recruitment in Y192-231E-expressing MCF7; details: preliminary study, data not shown
# Description: The Dual-Luciferase TM reporter assay system (Promega) was used for sequential measurement of Firefly and Renilla luciferase activities according to manufacturer's instructions. Quantification of luciferase activities were carried out using a luminometer (Sirius).
# The Dual-Luciferase TM reporter assay system (Promega) was used for sequential measurement of Firefly and Renilla luciferase activities according to manufacturer's instructions. Quantification of luciferase activities were carried out using a luminometer (Sirius, Berthold-DS Inc, Germany). Briefly, transfected cells in 24-well plate were rinsed once with ice-cold PBS and lysed in 1× Passive Lysis Buffer (PLB) for 15 min at RT. The crude lysate was first incubated with Luciferase Assay Substrate (LAR II) to measure the firefly luciferase activity, followed by incubation with Stop and Glo Substrate to measure the Renilla luciferase activity.
# Next, we examined the relative contributions of ERα and Wnt pathway to WBP2-mediated cellular proliferation. […] Even at higher doses of up to 2000 nM, retardation of proliferation by Tamoxifen of Y192-231E-expressing cells remains unremarkable. FH535 is a recently identified small-molecule inhibitor of TCF/β-catenin signaling (31). […] No synergistic effect could be observed when Tamoxifen and FH535 were administered in combination.
# [3] = test system: ERα; assay: Immunoblot of ERα expression in drug-treated WBP2-Y192-231E mutant-expressing MCF7; details: Y192-231E-expressing MCF7; 2 μM Tam and/or 15 μM FH535; day 2-4 post-treatment
# Description: For cells co-transfected ERE-luciferase, they were either left alone or stimulated with 50 ng/ml Wnt3a ligand for 16 hrs. TCF/ERα luciferase activities in various conditions were then assayed. **P<0.01, ***P<0.001, Student's t-test (2-tailed). […] Cell numbers were measured.
# Their expression levels were quantified in three independent experiments and the averages were presented relative to actin. […] For cells co-transfected ERE luciferase, they were either left alone or stimulated with 50 ng/ml Wnt3a ligand for 16 hrs. TCF(C)/ER[…](D) luciferase activities in various conditions were then assayed and analyzed in relative to untreated vector control. **P<0.01, ***P<0.001, Student's t-test (2-tailed). […] Cell numbers were measured daily and compared in relative to vehicle treated vector-expressing cells on Day 0. […] Cell numbers were measured and compared in relative to vehicle-treated cells. […] Cell numbers were measured on day 2 and day 4 and compared in relative to vehicle-treated control at each day (Top Panel). These treated cells were harvested for IB analysis with antibodies indicated (Bottom Panel).
# First, we exposed WBP2 phospho-mimic expressing MCF7 cells to serial concentrations of fulvestrant (0.1 nM, 1 nM, 10 nM, 100 nM and 1 μM) and probed for ERα expression to determine the effective working concentration. […] Next, we compared the growth and proliferation of WBP2 phospho-mimic mutant expressing MCF7 in the presence of 100 nM fulvestrant or 15 μM FH535.
smiles,measurement,setting,value
Cc1cc([N+](=O)[O-])ccc1NS(=O)(=O)c1cc(Cl)ccc1Cl [FH535],inhibition of growth / reduction of proliferation,"[1]; MCF7 cells expressing vector, day 4, 100 nM fulvestrant or 15 μM FH535",about 30%
same,"growth inhibition, dose dependence","[1]; vector stable transfectant, 0-50 μM FH535 for 2 days",dose dependent growth inhibition
same,TCF activity reduced,[2]; 24-hr post-treatment with 15 μM FH535 in Y192-231E-expressing MCF7,50%
same,recruitment of β-catenin,[2],inhibits
same,ERα expression,[3],significantly reduced; also recorded: reducing
